Measurements taken from patent US10758534B2 (Vertex Pharmaceuticals Incorporated, priority 2014, dated 2020).

Target: T1, F508del (Homo sapiens, UniProt P13569, DEL508-508)
T1 construct: expressed in transfected cells
Assay: Protocol 2: FRET membrane potential optical assay (VIPR), identification of correction compounds
Assay type: cell-based
Settings: not given
In short: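 NIH3T3 mouse fibroblasts stably expressing F508del-CFTR incubated with compound 16 h at 37 °C in serum-free medium, then loaded with CC2-DMPE/DiSBAC2(3) FRET dyes. Channel activated with 10 μM forskolin plus 20 μM genistein in Cl⁻-free (gluconate) bath; depolarisation from Cl⁻ efflux read on VIPR II.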

T1 sequence (P13569 with tags, fused parts or gaps DEL508-508): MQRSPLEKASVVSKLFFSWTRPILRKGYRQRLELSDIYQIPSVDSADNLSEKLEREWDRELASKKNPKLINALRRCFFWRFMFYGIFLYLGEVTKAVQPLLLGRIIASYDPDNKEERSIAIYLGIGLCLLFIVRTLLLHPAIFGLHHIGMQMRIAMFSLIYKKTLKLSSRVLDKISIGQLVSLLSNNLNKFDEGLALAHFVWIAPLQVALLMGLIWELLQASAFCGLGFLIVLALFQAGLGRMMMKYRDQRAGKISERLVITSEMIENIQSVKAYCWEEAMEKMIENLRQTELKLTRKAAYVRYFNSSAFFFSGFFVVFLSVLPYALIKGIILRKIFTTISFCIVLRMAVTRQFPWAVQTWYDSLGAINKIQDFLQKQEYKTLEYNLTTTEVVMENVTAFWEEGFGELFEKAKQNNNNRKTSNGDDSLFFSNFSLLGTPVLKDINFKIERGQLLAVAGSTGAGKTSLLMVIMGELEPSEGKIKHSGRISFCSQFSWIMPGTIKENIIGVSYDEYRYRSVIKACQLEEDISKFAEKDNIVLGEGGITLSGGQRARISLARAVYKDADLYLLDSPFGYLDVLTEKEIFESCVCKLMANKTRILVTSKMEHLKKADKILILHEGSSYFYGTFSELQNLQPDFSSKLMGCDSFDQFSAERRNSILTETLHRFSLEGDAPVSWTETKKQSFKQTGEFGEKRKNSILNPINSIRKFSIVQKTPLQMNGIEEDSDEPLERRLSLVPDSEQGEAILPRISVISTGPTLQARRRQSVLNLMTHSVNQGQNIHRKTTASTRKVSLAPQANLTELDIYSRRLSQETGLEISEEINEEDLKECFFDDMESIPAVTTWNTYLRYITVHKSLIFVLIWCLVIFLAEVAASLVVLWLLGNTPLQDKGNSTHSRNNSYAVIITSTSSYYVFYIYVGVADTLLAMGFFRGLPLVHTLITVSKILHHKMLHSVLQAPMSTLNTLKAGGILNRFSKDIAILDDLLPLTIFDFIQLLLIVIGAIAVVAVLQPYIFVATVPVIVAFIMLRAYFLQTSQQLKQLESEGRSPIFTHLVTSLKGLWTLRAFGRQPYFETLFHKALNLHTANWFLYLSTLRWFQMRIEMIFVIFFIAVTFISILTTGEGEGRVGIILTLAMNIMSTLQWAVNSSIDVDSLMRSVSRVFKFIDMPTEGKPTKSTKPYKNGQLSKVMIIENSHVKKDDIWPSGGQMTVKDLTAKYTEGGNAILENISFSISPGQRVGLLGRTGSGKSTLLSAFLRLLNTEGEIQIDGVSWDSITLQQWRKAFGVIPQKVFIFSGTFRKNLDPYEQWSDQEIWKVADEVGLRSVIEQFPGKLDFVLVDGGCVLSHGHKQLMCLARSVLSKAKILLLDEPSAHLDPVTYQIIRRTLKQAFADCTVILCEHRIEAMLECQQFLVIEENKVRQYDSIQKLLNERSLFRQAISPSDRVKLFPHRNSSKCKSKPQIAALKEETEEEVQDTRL

SMILES	EC30
C[C@@H]1CN(c2nc(C3=CC4CCC3C4)ccc2C(=O)NS(=O)(=O)c2cccc(N)n2)C(C)(C)C1 (stereo partly shown) [Compound 2703]	< 3000 nM

Same assay, conditions: F508del CFTR modulator activity; compounds of Table 1

SMILES	EC30
CC(C)COc1cc(F)cc(-c2ccc(C(=O)NS(=O)(=O)c3cccc(N)n3)c(C3CC(C)(C)CC3(C)C)n2)c1 (single isomer, unassigned) [Compound 2492, N-[(6-amino-2-pyridyl)sulfonyl]-6-(3-fluoro-5-isobutoxy-phenyl)-2-(2,2,4,4-tetramethylcyclopentyl)pyridine-3-carboxamide]	+++ (“+++” means <3 uM)

Same assay, conditions: F508del CFTR modulator activity; compounds of Table 1; read-out: EC30

SMILES	EC30
COc1cccc(Nc2cccc(S(=O)(=O)NC(=O)c3cccnc3N3CC(C)CC3(C)C)n2)n1 (stereo not shown) [Compound 2420, N—[[6-[(6-methoxy-2-pyridyl)amino]-2-pyridyl]sulfonyl]-2-(2,2,4-trimethylpyrrolidin-1-yl)pyridine-3-carboxamide]	3000 to 10000 nM
CC1CN(c2ncccc2C(=O)NS(=O)(=O)c2cccc(OC(C)c3ccccc3F)n2)C(C)(C)C1 (stereo not shown) [Compound 2408, N—[[6-[1-(2-fluorophenyl)ethoxy]-2-pyridyl]sulfonyl]-2-(2,2,4-trimethylpyrrolidin-1-yl)pyridine-3-carboxamide]	< 3000 nM
CC(C)CCN(C)c1cccc(S(=O)(=O)NC(=O)c2cccnc2N2CC(C)CC2(C)C)n1 (stereo not shown) [Compound 2346, N—[[6-[isopentyl(methyl)amino]-2-pyridyl]sulfonyl]-2-(2,2,4-trimethylpyrrolidin-1-yl)pyridine-3-carboxamide]	< 3000 nM
Cc1ccc(-c2ccc(C(=O)NS(=O)(=O)c3ccc[nH]c3=O)c(N3C[C@@H](C)CC3(C)C)n2)c(F)c1 [Compound 2000, 6-(2-fluoro-4-methyl-phenyl)-N-[(2-oxo-1H-pyridin-3-yl)sulfonyl]-2-[(4S)-2,2,4-trimethylpyrrolidin-1-yl]pyridine-3-carboxamide]	< 3000 nM
C[C@@H]1CN(c2nc(-c3cc(F)cc(F)c3)ccc2C(=O)NS(=O)(=O)c2ccc[nH]c2=O)C(C)(C)C1 [Compound 2652, 6-(3,5-difluorophenyl)-N-[(2-oxo-1H-pyridin-3-yl)sulfonyl]-2-[(4S)-2,2,4-trimethylpyrrolidin-1-yl]pyridine-3-carboxamide]	< 3000 nM
C[C@@H]1CN(c2nc(-c3cccc(C(F)(F)F)c3)ccc2C(=O)NS(=O)(=O)N2CC[C@H](N)C2)C(C)(C)C1 [Compound 2220, N-[(3S)-3-aminopyrrolidin-1-yl]sulfonyl-6-[3-(trifluoromethyl)phenyl]-2-[(4S)-2,2,4-trimethylpyrrolidin-1-yl]pyridine-3-carboxamide]	3000 to 10000 nM
CC(C)(C)c1ccc(C(=O)NS(=O)(=O)c2cccc(N)n2)c(N2CCC(C3CCOCC3)C2(C)C)n1 (stereo not shown) [Compound 2139]	< 3000 nM
CCOCCOc1ncc(-c2ccc(C(=O)NS(=O)(=O)c3cccc(N)n3)c(N3C[C@@H](C)CC3(C)C)n2)cc1C [Compound 2404, N-[(6-amino-2-pyridyl)sulfonyl]-6-[6-(2-ethoxyethoxy)-5-methyl-3-pyridyl]-2-[(4S)-2,2,4-trimethylpyrrolidin-1-yl]pyridine-3-carboxamide]	< 3000 nM
Cc1cc(-c2ccc(C(=O)NS(=O)(=O)c3cccc(N)n3)c(N3C[C@@H](C)CC3(C)C)n2)cnc1N(C)C(C)C [Compound 2684]	< 3000 nM
CC(C)COc1cc(F)cc(-c2ccc(C(=O)NS(=O)(=O)c3cccc(N)n3)c(N3CC(F)(F)CC3(C)C)n2)c1 [Compound 2631, N-[(6-amino-2-pyridyl)sulfonyl]-2-(4,4-difluoro-2,2-dimethyl-pyrrolidin-1-yl)-6-(3-fluoro-5-isobutoxy-phenyl)pyridine-3-carboxamide]	< 3000 nM
CCOc1cc(-c2ccc(C(=O)NS(=O)(=O)c3cccc(N)n3)c(N3C[C@@H](C)CC3(C)C)n2)cc(C)n1 [Compound 2364, N-[(6-amino-2-pyridyl)sulfonyl]-6-(2-ethoxy-6-methyl-4-pyridyl)-2-[(4S)-2,2,4-trimethylpyrrolidin-1-yl]pyridine-3-carboxamide]	< 3000 nM

Same assay, conditions: Table 3; compounds of Table 1 as modulators of CFTR activity; protocol not stated

SMILES	EC30
Cc1cc(C)c(Oc2nc(-c3cccc(CO)c3)ccc2C(=O)NS(=O)(=O)c2cccc(N)n2)c(C)c1 [Compound 786, N-[(6-amino-2-pyridyl)sulfonyl]-6-[3-(hydroxymethyl)phenyl]-2-(2,4,6-trimethylphenoxy)pyridine-3-carboxamide]	+ (“+” means greater than 10 uM)
Cc1ccc(-c2nc(C(C)(C)C)ccc2C(=O)NS(=O)(=O)c2cccc(N)c2)cc1C [Compound 274, N-(3-aminophenyl)sulfonyl-6-tert-butyl-2-(3,4-dimethylphenyl)pyridine-3-carboxamide]	+++ (“+++” means <3 uM)
Cc1cc(C)c(Oc2nc(C(C)(C)C)ccc2C(=O)NS(=O)(=O)c2ccccn2)c(C)c1 [Compound 222, 6-tert-butyl-N-(2-pyridylsulfonyl)-2-(2,4,6-trimethylphenoxy)pyridine-3-carboxamide]	+++ (“+++” means <3 uM)
COc1ccc(F)cc1-c1cc(C(=O)NS(=O)(=O)c2ccccc2)n(Cc2c(C)cccc2C)n1 [Compound 27, N-(benzenesulfonyl)-2-[(2,6-dimethylphenyl)methyl]-5-(5-fluoro-2-methoxy-phenyl)pyrazole-3-carboxamide]	+++ (“+++” means <3 uM)
COC(=O)C(C(=O)c1cc(C(C)(C)C)nn1Cc1c(C)cccc1C)S(=O)(=O)c1ccccc1 (stereo not shown) [Compound 4, Methyl 2-(benzenesulfonyl)-3-[5-tert-butyl-2-[(2,6-dimethylphenyl)methyl]pyrazol-3-yl]-3-oxo-propanoate]	+ (“+” means greater than 10 uM)
Cc1cc(C)c(Oc2nc(-c3ccc(C(F)(F)F)cc3)ccc2C(=O)NS(=O)(=O)c2cccc(N)n2)c(C)c1 [Compound 548, N-[(6-amino-2-pyridyl)sulfonyl]-6-[4-(trifluoromethyl)phenyl]-2-(2,4,6-trimethylphenoxy)pyridine-3-carboxamide]	+++ (“+++” means <3 uM)
Cc1cc(C)c(Oc2nc(-c3ccc(C)c(O)c3)ccc2C(=O)NS(=O)(=O)c2cccc(N)n2)c(C)c1 [Compound 793, N-[(6-amino-2-pyridyl)sulfonyl]-6-(3-hydroxy-4-methyl-phenyl)-2-(2,4,6-trimethylphenoxy)pyridine-3-carboxamide]	+++ (“+++” means <3 uM)
COc1cc(F)cc(-c2ccc(C(=O)NS(=O)(=O)c3cccc(N)n3)c(Oc3c(C)cc(C)cc3C)n2)c1 [Compound 682, N-[(6-amino-2-pyridyl)sulfonyl]-6-(3-fluoro-5-methoxy-phenyl)-2-(2,4,6-trimethylphenoxy)pyridine-3-carboxamide]	+++ (“+++” means <3 uM)
COc1c(C)cccc1-c1ccc(C(=O)NS(=O)(=O)c2cccc(N)n2)c(Oc2c(C)cc(C)cc2C)n1 [Compound 477, N-[(6-amino-2-pyridyl)sulfonyl]-6-(2-methoxy-3-methyl-phenyl)-2-(2,4,6-trimethylphenoxy)pyridine-3-carboxamide]	+++ (“+++” means <3 uM)
Cc1cc(C)c(Oc2nc(C3CCC(C)(C)CC3)ccc2C(=O)NS(=O)(=O)c2cccc(N)n2)c(C)c1 [Compound 538, N-[(6-amino-2-pyridyl)sulfonyl]-6-(4,4-dimethylcyclohexyl)-2-(2,4,6-trimethylphenoxy)pyridine-3-carboxamide]	+++ (“+++” means <3 uM)
Cc1cc(C)c(Cn2nc(C(C)(C)C)cc2C(=O)NS(=O)(=O)c2cccc(N)c2)c(C)c1 [Compound 110, N-(3-aminophenyl)sulfonyl-5-tert-butyl-2-[(2,4,6-trimethylphenyl)methyl]pyrazole-3-carboxamide]	+++ (“+++” means <3 uM)
Cc1cc(C)c(Oc2nc(C(C)(C)C)ccc2C(=O)NS(=O)(=O)c2cccc(N(C)C)c2)c(C)c1 [Compound 311, 6-tert-butyl-N-[3-(dimethylamino)phenyl]sulfonyl-2-(2,4,6-trimethylphenoxy)pyridine-3-carboxamide]	+++ (“+++” means <3 uM)
Cc1cccc(S(=O)(=O)NC(=O)c2cc(C(C)(C)C)nn2Cc2c(C)cc(C)cc2C)c1 [Compound 80, 5-tert-butyl-N-(m-tolylsulfonyl)-2-[(2,4,6-trimethylphenyl)methyl]pyrazole-3-carboxamide]	+++ (“+++” means <3 uM)
CC(C)COc1cc(F)cc(-c2ccc(C(=O)NS(=O)(=O)c3cccc(N)n3)c(N3CCC[C@@H]3C(F)(F)F)n2)c1 [Compound 398, N-[(6-amino-2-pyridyl)sulfonyl]-6-(3-fluoro-5-isobutoxy-phenyl)-2-[(2R)-2-(trifluoromethyl)pyrrolidin-1-yl]pyridine-3-carboxamide]	+++ (“+++” means <3 uM)
C[C@@H]1CC[C@H](C)N1c1nc(-c2ccc(OCC3(C)CC3)nc2)ccc1C(=O)NS(=O)(=O)c1cccc(N)n1 [Compound 454, N-[(6-amino-2-pyridyl)sulfonyl]-2-[(2S,5R)-2,5-dimethylpyrrolidin-1-yl]-6-[6-[(1-methylcyclopropyl)methoxy]-3-pyridyl]pyridine-3-carboxamide]	+++ (“+++” means <3 uM)
Cc1cccc(-c2nc(C(C)(C)C)ccc2C(=O)NS(=O)(=O)c2cccc(N)c2)c1 [Compound 282, N-(3-aminophenyl)sulfonyl-6-tert-butyl-2-(m-tolyl)pyridine-3-carboxamide]	++ (“++” means between 3 uM and 10 uM)
CC(c1ccccc1)n1c(C(=O)NS(=O)(=O)c2ccccc2)cc2c(F)cccc21 (stereo not shown) [Compound 160, N-(benzenesulfonyl)-4-fluoro-1-(1-phenylethyl)indole-2-carboxamide]	+++ (“+++” means <3 uM)
CC(C)COc1cc(F)cc(-c2ccc(C(=O)NS(=O)(=O)c3cccc(N)n3)c(N3CCC[C@@H]3C)n2)c1 [Compound 421, N-[(6-amino-2-pyridyl)sulfonyl]-6-(3-fluoro-5-isobutoxy-phenyl)-2-[(2S)-2-methylpyrrolidin-1-yl]pyridine-3-carboxamide]	+++ (“+++” means <3 uM)
